Assay results from patent US12043621B2, “Small molecule inhibitors of Interleukin-4” (Trustees of Boston University, priority 2020, dated 2024).
Read-outs that look alike come from different tables or passages of the source.

Key:
IL-4 = molecular target: T1, IL-4 (Homo sapiens, UniProt P05112); assay: HEK-Blue IL-4/IL-13 cell-based reporter (SEAP) IL-4 inhibition assay; settings: for Activity at 1 uM / Activity at 10 uM: percent activity in HEK-Blue IL-4/IL-13, in %; for reduction of IL-4 activity: at 50 μM, normalized to IL-4 with vehicle
T1 construct: purchased Acros Biosystems IL4-H4218; host or cells: HEK-293
T1 sequence (P05112 25-153): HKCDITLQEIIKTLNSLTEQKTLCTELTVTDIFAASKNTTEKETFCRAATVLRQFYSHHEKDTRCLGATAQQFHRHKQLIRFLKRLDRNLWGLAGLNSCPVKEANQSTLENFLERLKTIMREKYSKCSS
Experimental: HEK-Blue IL-4/IL-13 cells were purchased from Invivogen and maintained in DMEM complete with 10% fetal bovine serum, 10 μg/ml of blasticidin and 100 μg/ml of Zeocin, 100 μg/mL Normocin, and 100 U/mL-100 μg/mL Pen-Strep. Cells used for assays were between passages 12 and 18. […] HEK-Blue IL-4/IL-13 cells were trypsinized, spun down, and resuspended in DMEM with 10% heat-inactivated FBS, and 100 U/mL-100 μg/mL Pen-Strep at a concentration of 3.125E5/mL. 160 μL of the cell suspension was added to each well of a 96 well plate, avoiding the edges of the plate and equilibrated in an incubator for 1 hour. After 2 hours, 40 μL of the small molecule/IL-4 solution was added to each well. Each measurement performed in quadruplicate. Cells were incubated for 20 hours at 37° C./5% CO2. Quanti-Blue was prepared according to manufacture and 160 μL added to each well of a 96 well plate, avoiding edges. 40 μL of cell supernatant was added to each well and then incubated for 3 hours at 37° C. The optical density was then read at 650 nm with a Molecular Devices SpectraMax M5 Microplate Reader. Data was plotted and analyzed in GraphPad Prism 8.
HEK-Blue IL-4/IL-13 cells were purchased from Invivogen and maintained in DMEM complete with 10% fetal bovine serum, 10 μg/ml of blasticidin and 100 μg/ml of Zeocin, 100 μg/mL Normocin, and 100 U/mL-100 μg/mL Pen-Strep. Cells used for assays were between passages 12 and 18. Prior to screening small molecules, the SEAP production induced by IL-4 alone was tested in the cells (FIG. 13) and determined to be 0.3 ng/mL. The EC25 for the IL-4 induced SEAP production (0.1 ng/mL final well concentration) was chosen for running small molecule inhibition assays.
(§1) For screening small molecules, 25 µL of each molecule (FIG. 9) in DMEM with 4% DMSO was added to 25 μL of 1 ng/ml IL-4 in DMEM and incubated for 2 hours at 37° C. HEK-Blue IL-4/IL-13 cells were trypsinized, spun down, and resuspended in DMEM with 10% heat-inactivated FBS, and 100 U/mL-100 μg/mL Pen-Strep at a concentration of 3.125E5/mL. 160 μL of the cell suspension was added to each well of a 96 well plate, avoiding the edges of the plate and equilibrated in an incubator for 1 hour. After 2 hours, 40 μL of the small molecule/IL-4 solution was added to each well. Each measurement was performed in […]. Cells were incubated for 20 hours at 37° C./5% CO2. Quanti-Blue was prepared according to manufacture and 160 μL added to each well of a 96 well plate, avoiding edges. 40 μL of cell supernatant was added to each well and then incubated for 3 hours at 37° C. The optical density was then read at 650 nm with a Molecular Devices SpectraMax M5 Microplate Reader. Data was plotted and analyzed in GraphPad Prism 8.
HEK-Blue IL-4/IL-13 cells used to screen analogs of compound 52 from ACS Chemical Biology paper (also referred to herein as D9). Assay was run as described in Examples 2 and 3. All compounds were screened at 10 μM, 1 μM, and 250 nM in quadruplicate. The results are depicted in FIGS. 17-21.

>25 other proteins = assay: SMM binding signatures versus >25 unrelated proteins; settings: compared to SMM binding signatures for >25 other proteins
From the text: [formula] Where SNRi is the SNR value for a given feature, Mdn(SNR) is the median of the SNR values for all features in the subarray, and the MAD(SNR) is the […] absolute deviation of the SNR values for all features in the subarray. Assay positives with an average robust Z score greater than 1.645 (alpha=0.05) on duplicate slides were compared to both a counter screen for the detection antibody and a database representing >25 unique targets screened by SMM against the same chemical library to filter nonspecific binders. DSF

[1] = system: HEK-Blue IL-4/IL-13 cells; assay: HEK-Blue IL-4/IL-13 control: compounds alone without IL-4 (SEAP); assay type: cell-based; settings: cells with 100 μM compound, no IL-4
Experimental: as §1, with “For screening small molecules, 25 µL of each molecule (FIG. 9) in DMEM with 4% DMSO was added to 25 μL of 1 ng/ml IL-4 in DMEM and incubated for 2 hours at 37° C.” left out

[2] = Example 2, quadruplicate, read-out: EC50 of IL-4 inhibition in HEK-Blue IL-4/IL-13 cells
[3] = Example 3, triplicate, read-out: EC50 of IL-4 inhibition in HEK-Blue IL-4/IL-13 cells

Row | Structure (SMILES) | Activity at 1 uM (IL-4) | Activity at 10 uM (IL-4) | also measured
1 | N#Cc1c(-c2ccc(O)c(O)c2)cc(-c2ccc(F)cc2)nc1N [Compound 1, 2-amino-4-(3,4-dihydroxyphenyl)-6-(4-fluorophenyl)-nicotinonitrile] | 71.73 | 2.405 | EC50 (IL-4; [2]): 45.6 µM; EC50 (IL-4; [3]): 40 µM; EC50 (IL-4; Table 3, read-out: EC50): 1.56 µM; reduction of IL-4 activity (IL-4): 88.6%; SMM binding selectivity (>25 other proteins): only bound to IL-4; Abs650 [1]: 0.0955 ± 0.0072
2 | N#Cc1c(-c2ccc(O)c(O)c2)cc(-c2ccc(F)cc2)nc1N [Compound 2] | 64.46 | 4.2 | –
3 | N#Cc1c(-c2cc(O)c(O)c(O)c2)cc(-c2ccc(F)cc2)nc1N [Compound 5] | 84.76 | 93.86 | –
4 | Cc1ccc(-c2cc(-c3ccc(F)cc3)nc(N)c2C#N)o1 [Compound 9] | 77.98 | 66.06 | –
5 | Cc1ccc(-c2cc(-c3ccc(F)cc3)nc(N)c2C#N)s1 [Compound 11] | 69.98 | 62.48 | –
6 | N#Cc1c(-c2ccccc2O)cc(-c2ccc(F)cc2)nc1N [Compound 15] | 51.3773 | 1.218 | –
7 | N#Cc1c(-c2ccc(O)cc2)cc(-c2ccc(F)cc2)nc1N [Compound 17] | 99.0184 | 52.77 | –
8 | COc1ccc(-c2cc(-c3cccnc3)nc(N)c2C#N)cc1O [Compound 25] | – | – | EC50 (IL-4; [2]): 21.7 µM; EC50 (IL-4; [3]): 7.6 µM; reduction of IL-4 activity (IL-4): 84.3%; SMM binding selectivity (>25 other proteins): only bound to IL-4; Abs650 [1]: 0.0648 ± 0.0012
9 | COc1ccc(-c2cc(-c3ccc(OC)c(O)c3)c(C#N)c(N)n2)cc1 [Compound 30] | 64.45 | 28.76 | EC50 (IL-4; Table 3, read-out: EC50): 3.88 µM
10 | COc1ccc(-c2cc(-c3ccc(Cl)c(Cl)c3)c(C#N)c(=O)[nH]2)cc1 [Compound 32] | 51.3 | 55.85 | –
11 | COc1ccc(-c2cc(-c3ccccc3)c(C#N)c(=O)[nH]2)cc1 [Compound 34] | 73.09 | 72.43 | –
12 | COc1ccc(-c2cc(C3CCCOC3)c(C#N)c(=O)[nH]2)cc1 (stereo not shown) [Compound 36] | 71.59 | 68.36 | –
13 | COc1ccc(-c2cc(-c3ccc(C)o3)c(C#N)c(=O)[nH]2)cc1 [Compound 37] | 89.04 | 99.52 | –
14 | COc1ccc(-c2cc(-c3ccc4ccccc4c3)c(C#N)c(=O)[nH]2)cc1 [Compound 41] | 62.288 | 48.23 | –
15 | COc1ccc(-c2cc(-c3ccccc3O)c(C#N)c(=O)[nH]2)cc1 [Compound 42] | 33.675 | −0.3167 | –
16 | COc1ccc(-c2cc(-c3cccc(O)c3)c(C#N)c(=O)[nH]2)cc1 [Compound 43] | 112.2 | 35.73 | –
17 | COc1ccc(-c2cc(-c3ccc(O)cc3)c(C#N)c(=O)[nH]2)cc1 [Compound 44] | 33.62 | 39.28 | –
18 | COc1ccc(-c2cc(-c3ccc(O)c(OC)c3)c(C#N)c(=O)[nH]2)cc1 [Compound 45] | 80.34 | −2.843 | –
19 | COc1ccc(-c2cc(-c3ccc(OC)c(O)c3)c(C#N)c(=O)[nH]2)cc1 [Compound 46] | 17.94 | 13.16 | –
20 | COc1ccc(-c2cc(-c3ccc(-c4ccccc4)cc3)[nH]c(=O)c2C#N)cc1O [Compound 53] | 17.656 | 30.26 | –
21 | N#Cc1c(-c2ccc(O)c(O)c2)cc(-c2ccc(N3CCCCC3)cc2)[nH]c1=O [Compound 56] | 81.52 | 11.84 | –
22 | Cn1ccc(-c2cc(-c3cccc(O)c3)c(C#N)c(=O)[nH]2)c1 [Compound 57] | 94.4121 | 75.91 | –
23 | Cc1cc(-c2cc(-c3cccc(O)c3)c(C#N)c(=O)[nH]2)c(C)s1 [Compound 58] | 85.76 | 39.79 | –
24 | N#Cc1c(-c2cccc(O)c2)cc(-c2cc(F)c(F)c(F)c2)[nH]c1=O [Compound 59] | 88.75 | 32.37 | –
25 | COc1nc(-c2ccccc2)cc(-c2ccccc2)c1C#N [Compound 61] | 96.92 | 39.64 | –
26 | COc1ccc(-c2cc(-c3ccccc3)nc(Br)c2C#N)cc1 [Compound 62] | 96.31 | 38.63 | –
27 | N#Cc1c(-c2ccccc2)cc(-c2ccccc2)nc1N1CCCCC1 [Compound 63] | 95.46 | 40.44 | –
28 | COc1ccc(-c2cc(-c3ccccc3)c(C#N)c(S)n2)cc1 [Compound 64] | 17.08 | 16.53 | –
29 | COc1ccc(-c2cc(-c3ccccc3)c(C#N)c(SC)n2)cc1 [Compound 65] | 95.33 | 20.54 | –
30 | COc1ccc(-c2cc(-c3ccc(O)cc3)c(C#N)c(SC)n2)c(OC)c1 [Compound 66] | 87.86 | 21.21 | –
